Results as given in US20150094321A1, “COMBINATION” (GlaxoSmithKline LLC, priority 2009, published 2015).

Tests used:
Assay in all cases: Cell growth inhibition assay
Type in all cases: cell-based
MDA-MB-453 = conditions: Homo sapiens, MDA-MB-453, MDA-MB-453, breast, HER2+, PIK3CA H1047R; single agent; read-out: IC50 Single Agent (mean +/- std)
Description: (§1) Human breast tumor lines. BT-474, HCC1419, HCC1937, HCC1954, HCC202, KPL-1, MDA-MB-157, MDA-MB-175-VII, MDA-MB-361, MDA-MB-453, SK-BR-3, SUM225PE, UACC893, and ZR-75-1; lung tumor line, CALU-3; and melanoma line, CHL-1, were from ATCC. Human breast tumor line JIMT-1 was from European Collection of Cell Cultures (UK). Human breast tumor lines SUM149PT, SUM190PT and SUM52PE were from Asterand. These lines were cultured in RPMI 1640 medium containing 10% fetal bovine serum (FBS). A head and neck tumor line, LICR LON HN5 (HN5), a gift from the Institute of Cancer Research, Surrey, U.K, was cultured in Dulbecco's modified Eagle medium (DMEM) containing 5% FBS; KPL-4 breast tumor cell line was kindly provided by Dr Junichi Kurebayashi (Kawasaki Medical School, Okayama, Japan) and cultured in DMEM containing 5% FBS. JIMT-1 is a line derived from a patient clinically resistant to trastuzumab (Herceptin®). BT-474-J4 is a single cell clone derived from a pool of BT-474 cells that were selected to grow in lapatinib to a concentration of 3 μM.
(§2) All cells were cultured for a minimum of 72 hours prior to cell plating. Cells were assayed in a 96-well tissue culture plate (NUNC 136102) of RPMI medium containing 10% FBS for all cells at 2,000 cells per well except KPL-4 and HN5 which were plated in DMEM containing 5% FBS at 500 cells per well. Approximately 24 hours after plating, cells were exposed to ten, two-fold or three-fold serial dilutions of compound or the combination of the two agents at a constant molar to molar ratio of 1:1 Compound A to Compound B in RPMI media containing 10% FBS or DMEM containing 5% FBS. Cells were incubated in the presence of compounds for 3 days. ATP levels were determined by adding Cell Titer Glo® (Promega) according to the manufacturer's protocol. Briefly, Cell Titer Glo® was added each plate, incubated for 20 minutes then luminescent signal was read on the SpectraMax L plate reader with a 0.5 sec integration time.
(§3) Inhibition of cell growth was estimated after treatment with compound or combination of compounds for three days and comparing the signal to cells treated with vehicle (DMSO). Cell growth was calculated relative to vehicle (DMSO) treated control wells. Concentration of compound that inhibits 50% of control cell growth (IC50) was interpolated using nonlinear regression with the equation, y=(A+(B−A)/(1+(C/x)̂D))), where A is the minimum response (ymin), B is the maximum response (ymax), C is the inflection point of the curve (EC50) and D is the Hill coefficient. […]

SUM190PT = conditions: Homo sapiens, breast, HER2+, PIK3CA H1047R, single agent, read-out: IC50 Single Agent (mean +/- std)
Description: as §1, §2, §3

MDA-MB-361 = conditions: Homo sapiens, MDA-MB-361, MDA-MB-361, breast, HER2+, PIK3CA E545K; single agent; read-out: IC50 Single Agent (mean +/- std)
Description: as §1, §2, §3

KPL-4 = conditions: Homo sapiens, KPL4, KPL-4, breast, HER2+, PIK3CA H1047R; single agent; read-out: IC50 Single Agent (mean +/- std)
Description: as §1, §2, §3

HCC1954 = conditions: Homo sapiens, HCC1954, HCC1954, breast, HER2+, PIK3CA H1047R; single agent; read-out: IC50 Single Agent (mean +/- std)
Description: as §1, §2, §3

ZR-75-1 = conditions: Homo sapiens, ZR-75-1, ZR-75-1, breast, PTEN L108R; single agent; read-out: IC50 Single Agent (mean +/- std)
Description: as §1, §2, §3

SUM52PE = conditions: Homo sapiens, breast, FGFR2+, WT, single agent, read-out: IC50 Single Agent (mean +/- std)
Description: as §1, §2, §3

IC50 (MDA-MB-453): > 1 µM | IC50 (MDA-MB-361): > 1 µM | IC50 (HCC1954): > 1 µM
SMILES: CC(=O)Nc1cccc(-n2c(=O)n(C3CC3)c(=O)c3c(Nc4ccc(I)cc4F)n(C)c(=O)c(C)c32)c1 [Compound A, N-{3-[3-cyclopropyl-5-(2-fluoro-4-iodo-phenylamino)-6,8-dimethyl-2,4,7-trioxo-3,4,6,7-tetrahydro-2H-pyrido[4,3-d]pyrimidin-1-yl]phenyl}acetamide]
IC50 (SUM190PT): > 1 µM | IC50 (KPL-4): > 1 µM | IC50 (ZR-75-1): > 1 µM | IC50 (SUM52PE): > 1 µM
